These results are taken from US10975119B2, “Selective cysteine protease inhibitors and uses thereof” (Genesis Technologies Limited, priority 2011, dated 2021).

Holding throughout (type): biochemical
In one assay the target is T1, Caspase-9 (Homo sapiens, UniProt P55211).
T1 construct: purchased BioVision K159-100
T1 sequence (P55211 1-315 limits assumed): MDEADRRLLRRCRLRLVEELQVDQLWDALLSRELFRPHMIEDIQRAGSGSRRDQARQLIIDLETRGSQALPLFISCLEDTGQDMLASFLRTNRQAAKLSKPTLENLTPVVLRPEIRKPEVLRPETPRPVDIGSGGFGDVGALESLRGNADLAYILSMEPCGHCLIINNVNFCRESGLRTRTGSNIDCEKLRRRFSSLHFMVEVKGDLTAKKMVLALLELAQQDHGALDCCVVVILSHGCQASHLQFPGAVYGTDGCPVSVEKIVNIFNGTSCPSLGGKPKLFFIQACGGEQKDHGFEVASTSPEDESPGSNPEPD
T1 sequence (P55211 331-416 limits assumed): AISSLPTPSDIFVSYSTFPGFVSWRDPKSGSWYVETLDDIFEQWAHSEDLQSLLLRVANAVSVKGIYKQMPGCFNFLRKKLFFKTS
Nature of the assay: Caspase-9 inhibitor screening assay (BioVision kit, LEHD-AFC). The note with it: for inhibition at 10 µM: read-out: % Inhibition at 10 uM Casp9; for inhibition at 100 µM: read-out: % Inhibition at 100 uM Casp9. In short, it runs like this: (§1)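 Each caspase cleaved its own AFC-labelled peptide substrate, and released AFC was read by fluorescence. % inhibition came from RFU against an uninhibited control.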

In another assay the test system is Caspases 1 through 10. The assay is described as follows: Caspase-1 to Caspase-10 inhibitor screening, profile across the panel. How it is done: (§2) The efficacy of an array of compounds as an inhibitor of the activity of Caspases 1 through 10 were assessed by using the respective Caspase Inhibitor Drug Screening Kits (Caspase-1 Catalog #: K151-100, Caspase-2 Catalog #: K152-100, Caspase-3 Catalog #: K153-100, Caspase-4 Catalog #: K154-100, Caspase-5 Catalog #: K155-100, Caspase-6 Catalog #: K156-100, Caspase-7 Catalog #: K157-100, Caspase-8 Catalog #: K158-100, Caspase-9 Catalog #: K159-100, Caspase-10 Catalog #: K160-100, BioVision) following the instructions of the manufacturer. […] Active caspases cleaved their respective synthetic substrates to release free AFC, which was then quantified by fluorometry.
(§3) Briefly, the compounds were first tested at 2 concentrations (10 uM and 100 uM final) to determine if there is a hit. […] Each condition was tested in duplicates. […] For some samples, a smaller range of concentrations was tested depending on the % Inhibition results at 10 uM and 100 uM. Results were summarized in Tables 2, 3, and 4 herein after. Table 2 represents the IC50 values (uM) of the test compounds as inhibitors of the activity of the various caspases.
(§4) (*) RFU (no inhibitor control)—RFU (compound at a specific concentration)
(§5) RFU (no inhibitor control)

A further assay deals with T2, Caspase-2 (Homo sapiens, UniProt P42575).
T2 construct: mixing the compounds with the respective active caspases; purchased BioVision K152-100
T2 sequence (P42575 170-325 limits assumed): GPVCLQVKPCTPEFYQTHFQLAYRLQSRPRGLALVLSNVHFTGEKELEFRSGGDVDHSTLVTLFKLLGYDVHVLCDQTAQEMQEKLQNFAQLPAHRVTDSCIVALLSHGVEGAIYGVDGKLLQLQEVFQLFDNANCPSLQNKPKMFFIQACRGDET
T2 sequence (P42575 334-452 limits assumed): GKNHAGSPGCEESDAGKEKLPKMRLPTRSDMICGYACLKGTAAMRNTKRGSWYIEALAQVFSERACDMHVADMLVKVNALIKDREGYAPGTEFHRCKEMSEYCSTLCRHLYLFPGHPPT
Nature of the assay: Caspase-2 inhibitor screening assay (BioVision kit, VDVAD-AFC). Particulars: for inhibition at 10 µM: read-out: % Inhibition at 10 uM Casp2; for inhibition at 100 µM: read-out: % Inhibition at 100 uM Casp2; for IC50: read-out: IC50 Casp2. How it is done:
as §2, §3, §4, §5

The next assay concerns the target T3, Caspase-7 (Homo sapiens, UniProt P55210).
T3 construct: mixing the compounds with the respective active caspases; purchased BioVision K157-100
T3 sequence (P55210 24-198 limits assumed): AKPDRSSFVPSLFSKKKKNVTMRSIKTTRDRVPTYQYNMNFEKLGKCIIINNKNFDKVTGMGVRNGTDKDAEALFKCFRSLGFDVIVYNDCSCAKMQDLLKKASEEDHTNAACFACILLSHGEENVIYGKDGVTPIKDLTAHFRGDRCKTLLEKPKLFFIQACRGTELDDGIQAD
T3 sequence (P55210 207-303 limits assumed): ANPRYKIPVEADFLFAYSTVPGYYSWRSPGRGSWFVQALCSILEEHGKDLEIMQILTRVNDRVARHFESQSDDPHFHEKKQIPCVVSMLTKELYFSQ
The assay is described as follows: Caspase-7 inhibitor screening assay (BioVision kit, DEVD-AFC). Particulars: for inhibition at 10 µM: read-out: % Inhibition at 10 uM Casp7; for inhibition at 100 µM: read-out: % Inhibition at 100 uM Casp7. In short, it runs like this:
as §1

For another assay, the target named is T4, Caspase-1 (Homo sapiens, UniProt P29466).
T4 construct: mixing the compounds with the respective active caspases; purchased BioVision K151-100
T4 sequence (P29466 120-297 limits assumed): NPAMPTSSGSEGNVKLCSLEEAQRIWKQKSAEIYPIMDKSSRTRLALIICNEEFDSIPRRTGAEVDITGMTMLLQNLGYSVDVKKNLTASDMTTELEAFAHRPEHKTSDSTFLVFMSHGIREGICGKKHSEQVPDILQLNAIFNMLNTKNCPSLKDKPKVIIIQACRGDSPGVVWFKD
T4 sequence (P29466 317-404 limits assumed): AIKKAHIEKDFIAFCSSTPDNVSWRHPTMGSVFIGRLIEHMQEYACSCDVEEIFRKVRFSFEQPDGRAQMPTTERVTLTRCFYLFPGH
The assay is described as follows: Caspase-1 inhibitor screening assay (BioVision kit, YVAD-AFC). The note with it: for inhibition at 10 µM: read-out: % Inhibition at 10 uM Casp1; for inhibition at 100 µM: read-out: % Inhibition at 100 uM Casp1. In short, it runs like this:
as §1

The mark [1] stands for this setting: read-out: potency (IC50) against caspase-9.
[2] abbreviates: read-out: potency (IC50) against caspase-7.
The mark [3] stands for this setting: read-out: potency (IC50) against caspase-1.

As usually defined, the inhibition is the drop in the measured response relative to a control, in per cent. What is called IC50 is the point on the concentration scale where inhibition reaches its midpoint. In general, % Inhibition refers to the share of the control response that was lost under treatment. A lower % Inhibition goes with little suppression.

Where two headings read alike, the source gives them in different places.

For `CCOC(=O)/C=C/[C@H](CC(=O)O)NC(=O)[C@@H](NC(=O)[C@@H](NC(=O)[C@H](CC(=O)O)NC(=O)OCc1ccccc1)c1ccccc1)C(C)C` [Compound 105, Z-Asp-Phg-Val-Asp Ethyl Vinyl Ester], the inhibition at 10 µM on Caspase-9 came to 92%; at Caspase-2, 0%; on Caspase-7 it was 99%; on Caspase-1, 84%. For the same compound, the inhibition at 100 µM was 92% on Caspase-9 (100 uM), 17% on Caspase-2, 99% on Caspase-7 (100 uM) and 96% at Caspase-1. In addition, the IC50 at Caspase-9 (read-out: IC50 Casp9) worked out at 1 µM; on Caspase-9 (setting [1]), 0.994 µM; at Caspase-7 (read-out: IC50 Casp7) it was 0.15 µM; on Caspase-7 (setting [2]), 0.145 µM; at Caspase-1 (setting [3]), 1.05 µM. Moreover, the “inhibition profile across caspases, in words” value in the assay on Caspases 1 through 10 is “high inhibitory activity towards the effector (executioner) Caspases: Caspase-3 and -7”.
Turning to `CCOC(=O)/C=C/[C@H](CC(=O)O)NC(=O)[C@H]1CCCN1C(=O)[C@@H](NC(=O)c1ccc2ccccc2n1)C(C)(C)C` [Compound 118, 2-Quinoline carbonyl-t-Leu-Pro-Asp Ethyl Vinyl Ester], the inhibition at 10 µM turned out to be 53% on Caspase-9, 4% at Caspase-2, 3% at Caspase-7 and 100% at Caspase-1. Besides, the inhibition at 100 µM at Caspase-9 (100 uM) stood at 92%; on Caspase-2, 10%; at Caspase-7 (100 uM), 8%; at Caspase-1, 100%. Moreover, the IC50 on Caspase-9 (read-out: IC50 Casp9) was 8.9 µM; at Caspase-2, greater than 100 µM; at Caspase-7 (read-out: IC50 Casp7), greater than 100 µM; on Caspase-1 (read-out: IC50 Casp1), 0.03 µM. Also, the “inhibition profile across caspases, in words” value in the assay on Caspases 1 through 10 is recorded as “very strong inhibitory activity towards pro-inflammatory Caspases”.
Turning to `CC(C)(C)[C@H](NC(=O)[C@H](CC(=O)O)NC(=O)OCc1ccccc1)C(=O)N1CCCC1C(=O)N[C@H](/C=C/S(C)(=O)=O)CC(=O)O` (stereo in doubt) [Compound 26, Z-Asp-t-Leu-Pro-Asp-methyl vinyl sulfone], the inhibition at 10 µM on Caspase-9 stood at 95%; on Caspase-2 it was 70%; on Caspase-7, 99%; at Caspase-1, 69%. The inhibition at 100 µM stood at 100% at Caspase-9 (100 uM), 96% at Caspase-2, 100% at Caspase-7 (100 uM) and 99% on Caspase-1. The IC50 at Caspase-9 (read-out: IC50 Casp9) was 0.66 µM; at Caspase-9 (setting [1]), 0.662 µM; on Caspase-2 it was 4.36 µM; on Caspase-7 (read-out: IC50 Casp7), 0.38 µM; on Caspase-7 (setting [2]), 0.378 µM; at Caspase-1 (read-out: IC50 Casp1), 4.29 µM. Further, the “inhibition profile across caspases, in words” value with Caspases 1 through 10 was “high inhibitory activity towards the effector (executioner) Caspases: Caspase-3 and -7”.
On to `CC(C)(C)[C@H](NC(=O)c1ccc(N)c(Cl)c1)C(=O)N1CCCC1C(=O)N[C@H](/C=C/S(C)(=O)=O)CC(=O)O` (stereo in doubt) [Compound 14, 4-amino-3-chlorobenzene carbonyl-t-Leu-Pro-Asp methyl vinyl sulfone], for which the inhibition at 10 µM at Caspase-9 was 77%; on Caspase-2, 1%; on Caspase-7 it was 13%; on Caspase-1, 99%. Besides, the inhibition at 100 µM at Caspase-9 (100 uM) amounted to 99%; on Caspase-2, 10%; at Caspase-7 (100 uM) it was 91%; at Caspase-1 it was 100%. Further, the IC50 at Caspase-9 (read-out: IC50 Casp9) is 2.3 µM; at Caspase-9 (setting [1]) it was 2.31 µM; at Caspase-2, greater than 100 µM; on Caspase-7 (read-out: IC50 Casp7), 24.5 µM; on Caspase-1 (read-out: IC50 Casp1), 0.02 µM; on Caspase-1 (setting [3]), 0.019 µM. In addition, in the assay on Caspases 1 through 10, the “inhibition profile across caspases, in words” value was “very strong inhibitory activity towards pro-inflammatory Caspases”.
Take `CCOC(=O)/C=C/[C@H](CC(=O)O)NC(=O)[C@@H](NC(=O)[C@H](CCC(=O)O)NC(=O)[C@@H](NC(=O)OCc1ccccc1)C(C)C)C(C)CC` (stereo partly drawn) [Compound 124, Z-Val-Glu-Ile-Asp-Ethyl Vinyl ester]: the IC50 at Caspase-9 (read-out: IC50 Casp9) was 7.5 µM; at Caspase-2, 10 µM; at Caspase-7 (read-out: IC50 Casp7), greater than 100 µM; on Caspase-1 (read-out: IC50 Casp1) it was 0.78 µM. The “inhibition profile across caspases, in words” value in the assay on Caspases 1 through 10 is recorded as “pan-caspase inhibitor”.
`CC(C)[C@H](NC(=O)OCc1ccccc1)C(=O)N[C@H](/C=C/S(C)(=O)=O)CC(=O)O` [Compound 3, Z-Val-Asp methyl vinyl sulfone]: the inhibition at 10 µM stood at 0% on Caspase-9, 0% on Caspase-2, 0% on Caspase-7 and 18% on Caspase-1. The inhibition at 100 µM is 17% at Caspase-9 (100 uM), 0% at Caspase-2, 9% on Caspase-7 (100 uM) and 26% at Caspase-1. The IC50 at Caspase-9 (read-out: IC50 Casp9), at Caspase-2, on Caspase-7 (read-out: IC50 Casp7) and on Caspase-1 (read-out: IC50 Casp1) was greater than 100 µM throughout.
For `CC(C)[C@H](NC(=O)OCc1ccccc1)C(=O)N[C@H](/C=C(\Cl)S(C)(=O)=O)CC(=O)O` [Compound 2, Cbz-Val-Asp achlorovinyl methyl vinyl sulfone], the inhibition at 10 µM at Caspase-9 turned out to be 16%; at Caspase-2, 0%; at Caspase-7 it was 3%; at Caspase-1, 0%. The “% Inhibition at 100 uM Casp9” value at Caspase-9 (100 uM) was found to be 70%. Moreover, the inhibition at 100 µM at Caspase-9 (100 uM) is 66%; on Caspase-2 it was 0%; on Caspase-7 (100 uM) it was 60%; at Caspase-1, 5%. Moreover, the 50% inhibitory concentration (IC50) at Caspase-9 (read-out: IC50 Casp9) was 50.9 µM; at Caspase-2, greater than 100 µM; at Caspase-7 (read-out: IC50 Casp7) it was 64.4 µM; on Caspase-1 (read-out: IC50 Casp1), greater than 100 µM. Besides, the “% Inhibition at 100 uM Casp7” value on Caspase-7 (100 uM) is listed as 72%.
On to `CC(C)(C)OC(=O)CC[C@H](NC(=O)OC(C)(C)C)C(=O)N[C@H](/C=C/S(C)(=O)=O)CC(=O)OC(C)(C)C` [Compound 21, Boc-Glu(O—tBu)-Asp (O—tBu)-methyl vinyl sulfone], for which the inhibition at 10 µM worked out at 1% on Caspase-9, 14% at Caspase-2, 0% on Caspase-7 and 2% at Caspase-1. Further, the inhibition at 100 µM turned out to be 10% on Caspase-9 (100 uM), 18% at Caspase-2, 0% on Caspase-7 (100 uM) and 2% at Caspase-1. Further, the IC50 at Caspase-9 (read-out: IC50 Casp9), on Caspase-2, on Caspase-7 (read-out: IC50 Casp7) and on Caspase-1 (read-out: IC50 Casp1) was greater than 100 µM throughout.
